Measurements: US11198715B2, “Selective Bfl-1 peptides” (MASSACHUSETTS INSTITUTE OF TECHNOLOGY, priority 2016, dated 2021)

Legend:
Bcl-xL = experiment: Ki (nM) | Bcl-xL
Bfl-1 = target: T1, Bfl-1 (Homo sapiens, UniProt Q16548); experiment: Competition fluorescence polarization (anisotropy) binding assay with fluoresceinated Bim; details: for selective binding to Bfl-1 over other Bcl-2 family proteins: Ki from competition assays with fluoresceinated Bim; for affinity for Bfl-1 relative to PUMA / specificity for Bfl-1 relative to PUMA: inhibition constants, 23-residue peptides (FIG. 2I)
T1 sequence (Q16548 1-175): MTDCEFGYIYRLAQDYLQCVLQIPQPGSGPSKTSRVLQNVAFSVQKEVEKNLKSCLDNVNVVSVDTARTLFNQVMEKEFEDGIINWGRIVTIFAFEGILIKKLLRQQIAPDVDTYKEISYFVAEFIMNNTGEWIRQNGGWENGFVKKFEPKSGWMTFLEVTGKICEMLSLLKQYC
Procedure: Fluorescence polarization assays were performed in order to measure the binding abilities of the peptide constructs. Competition fluorescence polarization experiments were performed by titrating 10-0 μM of unlabeled peptide into 50 nM receptor with […] fluorecinated Bim (fluorescein-[…]) in FP buffer (25 mM Tris pH 7.8, 50 mM NaCl, 1 mM EDTA, 0.001% v/v Triton-X, 5% DMSO). C-myc-tagged receptors were used for all Bcl-2 homologs. Plates were mixed at room temperature for 3 h. Experiments were done in triplicate.
Ki values were obtained from the competition assays with fluoresceinated Bim peptide.

[1] = test system: BCR-ABL-expressing B-ALL cell lines engineered to depend on Bcl-2, Bcl-xL, Mcl-1 or Bfl-1; experiment: Whole-cell BH3 profiling (JC-1 mitochondrial depolarization, MOMP); assay type: cell-based; design: cross reactivity in non-Bfl-1 dependent lines: dose or concentration left out as unconfirmed; details: JC-1 readout; for mitochondrial depolarization in cell lines dependent on Mcl-1, Bcl-2, Bcl-xL or Bfl-1: FS peptides at 100 nM
Procedure: A whole-cell BH3 profiling assay was used to test the specificity of the peptide constructs in several cell lines with known dependencies on anti-apoptotic proteins, including Bcl-2, Mcl-1, Bcl-xL, or Bfl-1. The creation and characterization of the BCR-ABL-expressing B-lineage acute lymphoblastic leukemia suspension cell lines with engineered dependencies on human versions of anti-apoptotic genes is detailed in Koss et al., Oncotarget, 7:11500-11511, 2016. Cells were grown in RPMI (Life Technologies, Carlsbad, Calif.) with 10% fetal bovine serum, 2 mM L-glutamine, 10 mL/L 100× Pen/Strep (Life Technologies #15140122), 25 mM HEPES and 10 mL/L 100×NEAA (Life Technologies, 11140050). The adherent cell lines PC-3 (RRID: CVCL_0035) and SF295 (RRID: CVCL_1690) are from the NCI60 panel (Lorenzi et al., 2009) and were grown in RPMI (Life Technologies) with 10% fetal bovine serum, 2 mM L-glutamine and 10 mL/L 100× Pen/Strep (Life Technologies #15140122). Cell line identities were confirmed by STR profiling. The Lookout Mycoplasma PCR detection kit (Sigma) was used to detect mycoplasma infection. Mycoplasma was only detected in the PC-3 cell line, and internal controls were used to account for this phenotype.
Peptides were titrated by serial dilution in MEB buffer (150 mM Mannitol, 10 mM HEPES-KOH pH 7.5, 50 mM KCl, 0.02 mM EGTA, 0.02 mM EDTA, 0.1% BSA and 5 mM Succinate) containing 20 […], […] and 10 mM 2-mercaptoethanol in 384-well plates. Controls for no depolarization (1% DMSO) and complete depolarization with the mitochondrial oxidative phosphorylation uncoupler FCCP ([…]) were included for data normalization. Cells were suspended at 1.67×10^6 cells/mL in MEB. […] was added to each well containing […] of treatment solution. Fluorescence emission was measured every 5 min for 3 hours at […] with 525 nm excitation on a Tecan Safire2. To produce percent depolarization, the area under the resultant curve was calculated and normalized to the assay controls. Peptide titration curves were fit to sigmoidal dose-response curves using Graphpad PRISM seven to obtain EC50 values.
As depicted in FIG. 9A, in this assay, permeabilized cells were contacted with increasing doses of the BH3 peptides, and mitochondrial outer membrane permeabilization (MOMP) was monitored using a voltage-sensitive dye (JC-1). The apoptotic sensitivity of BCR-ABL-expressing B-lineage acute lymphoblastic leukemia (B-ALL) cell lines engineered to depend on Bcl-2, Bcl-xL, Mcl-1 or Bfl-1 overexpression for survival.

[2] = test system: BCR-ABL-expressing B-ALL cell lines engineered to depend on Bcl-2, Bcl-xL, Mcl-1 or Bfl-1; experiment: iBH3 profiling, cytochrome c release; assay type: cell-based; design: cross reactivity in non-Bfl-1 dependent lines: dose or concentration left out as unconfirmed
Procedure: As an additional test for on-pathway activity, cytochrome c release was measured in the same engineered cell lines in response to peptide treatment, using iBH3 profiling (see Ryan et al., Biol. Chem., 397:671-678, 2016). Cells were suspended in MEB buffer (150 mM mannitol, 50 mM KCl, 10 mM HEPES, 5 mM succinic acid, […], 0.1% BSA, final pH 7.4) at 0.5*10^6 cells/mL (adherent lines) or 2*10^6 cells/mL (suspension lines). Cell suspension was added to a 384 non-binding well plate ([…]) containing peptides at 2× final concentration in MEB with […]. Plates were incubated at 25° C. for 1 hour. To terminate exposure, […] in PBS was added to each well, plates were incubated for 10 minutes before addition of […] (1.7 M Tris, 1.25 M glycine, pH 9.1) for 5 min. […] The median fluorescence of the cytochrome c channel of Hoechst positive singlets was recorded by an IntelliCyt iQue Screener Plus. Cytochrome c release was determined by normalizing the median fluorescence intensity (MFI) data to positive control wells (Alamethicin) and negative control wells (DMSO) as follows: Cytochrome release=1−(MFIsample−MFIAlamethicin)/(MFIDMSO−MFIAlamethicin)

Ac-QWVREIAAGLRLAADNVNAQLER-NH2 [FS1]
Ki (Bcl-xL): 2720 ± 713 nM | selective binding to Bfl-1 over other Bcl-2 family proteins (Bfl-1): bound selectivity to Bfl-1 over other Bcl-2 family proteins | affinity for Bfl-1 relative to PUMA (Bfl-1): reduced affinity for Bfl-1 relative to PUMA | specificity for Bfl-1 relative to PUMA (Bfl-1): significantly increased specificity | specificity for Bfl-1 relative to Bcl-xL, Bcl-2, Bcl-w and Mcl-1 (Bfl-1; ratio of Ki values): at least 150 fold | mitochondrial depolarization in cell lines dependent on Mcl-1, Bcl-2, Bcl-xL or Bfl-1 [1]: promoted depolarization only in Bfl-1 dependent cells

QWIREIAAGLRRFADILNAQVER [FS3]
potency in cytochrome c release, comparison [2]: more potently than FS1 or FS2 | cross reactivity in non-Bfl-1 dependent lines ([2]; cytochrome c release): significant cross reactivity | selective binding to Bfl-1 over other Bcl-2 family proteins (Bfl-1): bound selectivity to Bfl-1 over other Bcl-2 family proteins | affinity for Bfl-1 relative to PUMA (Bfl-1): reduced affinity for Bfl-1 relative to PUMA | specificity for Bfl-1 relative to PUMA (Bfl-1): significantly increased specificity | cross reactivity in non-Bfl-1 dependent lines [1]: significant cross reactivity | potency of mitochondrial depolarization, comparison [1]: more potently than FS1 or FS2 | mitochondrial depolarization in cell lines dependent on Mcl-1, Bcl-2, Bcl-xL or Bfl-1 [1]: promoted depolarization only in Bfl-1 dependent cells

QWVREIAAGLRRAADDVNAQVER [FS2]
selective binding to Bfl-1 over other Bcl-2 family proteins (Bfl-1): bound selectivity to Bfl-1 over other Bcl-2 family proteins | affinity for Bfl-1 relative to PUMA (Bfl-1): reduced affinity for Bfl-1 relative to PUMA | specificity for Bfl-1 relative to PUMA (Bfl-1): significantly increased specificity | mitochondrial depolarization in cell lines dependent on Mcl-1, Bcl-2, Bcl-xL or Bfl-1 [1]: promoted depolarization only in Bfl-1 dependent cells
